Assay results published in US20110245242A1, “Heterocyclically Substituted Anilinopyrimides” (Bayer CropScience AG, priority 2008, published 2011).

Experiment: log P by HPLC on reversed-phase columns (C 18), method [a], acidic range pH 2.3
Format: physicochemical
Conditions: pH 2.3
Procedure: The log P values were measured in accordance with EEC Directive 79/831 Annex V.A8 by HPLC (High Performance Liquid Chromatography) on reversed-phase columns (C 18) using the methods below: [a] The determination was carried out in the acidic range at pH 2.3 using the mobile phases 0.1% aqueous phosphoric acid and acetronitrile linear gradient from 10% acetonitrile to 95% acetronitrile.

Row | SMILES | log P (pH 2.3) | log p
1 | CCC1CC(C)C(=O)N1 (centres unmarked) [5-Ethyl-3-methylpyrrolidin-2-one] | 0.96 | –
2 | COCC(C)Nc1nc(Nc2cccc(N3CCCC3=O)c2)ncc1Cl (centres unmarked) [Example 2] | – | 1.53[a]
3 | CCC(C)Nc1nc(Nc2ccc(N3CCCC3=O)cc2)ncc1Cl (centres unmarked) [Example 7] | – | 1.65[a]

Same assay, conditions: pH 2.3, log P (pH 2.3)

Row | SMILES | chromatographic logP
4 | O=C1CCCN1c1cc([N+](=O)[O-])ccc1F [1-(2-Fluoro-5-nitrophenyl)pyrrolidin-2-one] | 1.47
5 | Nc1cc(N2C(=O)CCC2=O)ccc1Cl [1-(3-Amino-4-chlorophenyl)pyrrolidine-2,5-dione] | 0.79
6 | COc1cc(N)cc(N2CCCC2=O)c1 [1-(3-Amino-5-methoxyphenyl)pyrrolidin-2-one] | 0.6
7 | CC1(C)CC(=O)N(c2cccc(N)c2)C1=O [1-(3-Aminophenyl)-3,3-dimethylpyrrolidine-2,5-dione] | 0.86
8 | Nc1cccc(N2C(=O)CCC2C(F)(F)F)c1 (centres unmarked) [1-(3-Aminophenyl)-5-(trifluoromethyl)pyrrolidin-2-one] | 1.07
9 | CCC1CC(C)C(=O)N1c1cccc(N)c1 (centres unmarked) [1-(3-Aminophenyl)-5-ethyl-3-methylpyrrolidin-2-one] | 1.31
10 | CCC1CCC(=O)N1c1cccc(N)c1 (centres unmarked) [1-(3-Aminophenyl)-5-ethylpyrrolidin-2-one] | 0.94
11 | CC1CCC(=O)N1c1cccc(N)c1 (centres unmarked) [1-(3-Aminophenyl)-5-methylpyrrolidin-2-one] | 0.52
12 | COc1cc(N2CCCC2=O)cc([N+](=O)[O-])c1 [1-(3-Methoxy-5-nitrophenyl)pyrrolidin-2-one] | 1.99
13 | Nc1ccc(F)c(N2CCCC2=O)c1 [1-(5-Amino-2-fluorophenyl)pyrrolidin-2-one] | 0.31
14 | CC1(C)CC(=O)N(c2cccc([N+](=O)[O-])c2)C1=O [3,3-Dimethyl-1-(3-nitrophenyl)pyrrolidine-2,5-dione] | 2.01
15 | Nc1cccc(N2CCOC2=O)c1 [3-(3-Aminophenyl)-1,3-oxazolidin-2-one] | -0.18
16 | CC1CN(c2cccc(N)c2)C(=O)O1 (centres unmarked) [3-(3-Aminophenyl)-5-methyl-1,3-oxazolidin-2-one] | 0.33
17 | CC1CCN(Cc2cccc([N+](=O)[O-])c2)C1=O (centres unmarked) [3-Methyl-1-(3-nitrobenzyl)pyrrolidin-2-one] | 1.82
18 | COc1cc(NC(=O)CCCCl)cc([N+](=O)[O-])c1 [4-Chloro-N-(3-methoxy-5-nitrophenyl)butanamide] | 2.46
19 | Clc1cnc(Nc2ccc(I)cc2)nc1NC1CC1 [5-Chloro-N^4-cyclopropyl-N^2-(4-iodophenyl)pyrimidine-2,4-diamine] | 2.73
20 | CCC1CC(C)C(=O)N1 (centres unmarked) [5-Ethyl-3-methylpyrrolidin-2-one] | 1.02
21 | CC(C)[C@@H]1COC(=O)N1c1cccc(N)c1 [(4R)-3-(3-Aminophenyl)-4-isopropyl-1,3-oxazolidin-2-one] | 1.18
22 | C[C@@H]1COC(=O)N1c1cccc(N)c1 [(4R)-3-(3-Aminophenyl)-4-methyl-1,3-oxazolidin-2-one] | 0.27
23 | CCOC(=O)[C@@H]1CCC(=O)N1c1cccc(N)c1 [Ethyl 1-(3-aminophenyl)-5-oxo-L-prolinate] | 0.84

Experiment: log P by LC-MS, method [b], acid range pH 2.7
Format: physicochemical
Conditions: pH 2.7
Procedure: The log P values were measured in accordance with EEC Directive 79/831 Annex V.A8 by HPLC (High Performance Liquid Chromatography) on reversed-phase columns (C 18) using the methods below:
[b] The LC-MS determination in the acid range was carried out at pH 2.7 using the mobile phases 0.1% aqueous formic acid and acetonitrile (contains 0.1% formic acid)
linear gradient from 10% acetonitrile to 95% acetonitrile.

Row | SMILES | log p
24 | CC(C)Nc1nc(Nc2ccc(N3C(=O)OCC3C)cc2)ncc1Br (centres unmarked) [Example 150] | 1.68[b]
25 | CC(C)Nc1nc(Nc2cccc(N3CCOCC3=O)c2)ncc1Br [Example 151] | 1.47[b]
26 | CC(C)Nc1nc(Nc2cccc(N3C(=O)CCC3C)c2)ncc1Br (centres unmarked) [Example 152] | 1.73[b]
27 | CC(C)Nc1nc(Nc2cccc(N3C(=O)CC(C)C3=O)c2)ncc1Br (centres unmarked) [Example 153] | 1.68[b]
28 | O=C1OCCN1c1cccc(Nc2ncc(Cl)c(NCC(F)F)n2)c1 [Example 154] | 1.63[b]
29 | CC1COC(=O)N1c1cccc(Nc2ncc(Cl)c(NCC(F)F)n2)c1 (centres unmarked) [Example 155] | 1.81[b]
30 | CC1(C)CC(=O)N(c2cccc(Nc3ncc(Cl)c(NCC(F)F)n3)c2)C1=O [Example 156] | 2.01[b]
31 | CC1CC(C)N(c2cccc(Nc3ncc(Cl)c(NCC(F)F)n3)c2)C1=O (centres unmarked) [Example 157] | 2.11[b]
32 | CC1COC(=O)N1c1ccc(Nc2ncc(Cl)c(NCC(F)F)n2)cc1 (centres unmarked) [Example 158] | 1.68[b]
33 | O=C1COCCN1c1cccc(Nc2ncc(Cl)c(NCC(F)F)n2)c1 [Example 159] | 1.46[b]
34 | CC1CCC(=O)N1c1cccc(Nc2ncc(Cl)c(NCC(F)F)n2)c1 (centres unmarked) [Example 160] | 1.81[b]
35 | CC1CC(=O)N(c2cccc(Nc3ncc(Cl)c(NCC(F)F)n3)c2)C1=O (centres unmarked) [Example 161] | 1.68[b]
36 | O=C1OCCN1c1cccc(Nc2ncc(Br)c(NCC(F)F)n2)c1 [Example 162] | 1.71[b]
37 | CC1COC(=O)N1c1cccc(Nc2ncc(Br)c(NCC(F)F)n2)c1 (centres unmarked) [Example 163] | 1.88[b]
38 | CC1(C)CC(=O)N(c2cccc(Nc3ncc(Br)c(NCC(F)F)n3)c2)C1=O [Example 164] | 2.08[b]
39 | CC1COC(=O)N1c1ccc(Nc2ncc(Br)c(NCC(F)F)n2)cc1 (centres unmarked) [Example 165] | 1.78[b]
40 | O=C1COCCN1c1cccc(Nc2ncc(Br)c(NCC(F)F)n2)c1 [Example 166] | 1.51[b]
41 | CC1CCC(=O)N1c1cccc(Nc2ncc(Br)c(NCC(F)F)n2)c1 (centres unmarked) [Example 167] | 1.91[b]
42 | CC1CC(=O)N(c2cccc(Nc3ncc(Br)c(NCC(F)F)n3)c2)C1=O (centres unmarked) [Example 168] | 1.78[b]
43 | CC1(C)CC(=O)N(c2cccc(Nc3ncc(Cl)c(NCC(F)(F)F)n3)c2)C1=O [Example 170] | 2.36[b]
44 | CC1CC(C)N(c2cccc(Nc3ncc(Cl)c(NCC(F)(F)F)n3)c2)C1=O (centres unmarked) [Example 171] | 2.51[b]
45 | CC1COC(=O)N1c1ccc(Nc2ncc(Cl)c(NCC(F)(F)F)n2)cc1 (centres unmarked) [Example 172] | 2.06[b]
46 | O=C1COCCN1c1cccc(Nc2ncc(Cl)c(NCC(F)(F)F)n2)c1 [Example 173] | 1.73[b]
47 | CC1CCC(=O)N1c1cccc(Nc2ncc(Cl)c(NCC(F)(F)F)n2)c1 (centres unmarked) [Example 174] | 2.16[b]
48 | O=C1OCCN1c1cccc(Nc2ncc(Cl)c(NCC(F)(F)F)n2)c1 [Example 175] | 2.01[b]
49 | CC1COC(=O)N1c1cccc(Nc2ncc(Cl)c(N(C)C3CC3)n2)c1 (centres unmarked) [Example 176] | 2.29[b]
50 | CC1COC(=O)N1c1ccc(Nc2ncc(Cl)c(N(C)C3CC3)n2)cc1 (centres unmarked) [Example 179] | 2.16[b]

Row | SMILES | log p
51 | CC1CCC(=O)N1c1cccc(Nc2ncc(Cl)c(N(C)C3CC3)n2)c1 (centres unmarked) [Example 180] | 2.26[b]
52 | CC1CC(=O)N(c2cccc(Nc3ncc(Cl)c(N(C)C4CC4)n3)c2)C1=O (centres unmarked) [Example 182] | 2.21[b]
53 | COCC(C)Nc1nc(Nc2cccc(N3C(=O)OC[C@H]3C)c2)ncc1Br (some centres unmarked) [Example 183] | 1.71[b]
54 | C[C@@H]1C[C@H](C)N(c2cccc(Nc3ncc(Br)c(NCC(F)F)n3)c2)C1=O [Example 189] | 3.24[b]
55 | CC1(C)CC(=O)N(c2cccc(Nc3ncc(C(F)(F)F)c(NC4CCC4)n3)c2)C1=O [Example 192] | 3.03[b]
56 | O=C1CCCN1c1cc(Nc2ncc(C(F)(F)F)c(NCC3CC3)n2)ccc1F [Example 201] | 2.41[b]
57 | CC1CC1Nc1nc(Nc2cccc(N3CCOC3=O)c2)ncc1Cl (centres unmarked) [Example 205] | 1.67[b]
58 | O=c1ccccn1-c1cccc(Nc2ncc(Br)c(NC3CCC3)n2)c1 [Example 221] | 1.71[b]
59 | O=C1CCCN1c1cccc(Nc2ncc(Cl)c(N3CCCC3)n2)c1 [Example 222] | 1.67[b]
60 | CCC1CC1Nc1nc(Nc2cccc(N3CCCC3=O)c2)ncc1Cl (centres unmarked) [Example 242] | 1.99[b]
61 | CCC1CCC(=O)N1c1cccc(Nc2ncc(C(F)(F)F)c(NC3CC3)n2)c1 (centres unmarked) [Example 255] | 2.75[b]
62 | O=C1N(CCCl)CCN1c1cccc(Nc2ncc(Br)c(NC3CC3)n2)c1 [Example 285] | 1.92[b]
63 | O=C1N(CCCl)CCN1c1cccc(Nc2ncc(Cl)c(NC3CC3)n2)c1 [Example 286] | 1.82[b]
64 | CC1CC(Nc2nc(Nc3cccc(N4C(=O)CCC4=O)c3)ncc2Br)C1 (centres unmarked) [Example 288] | 1.86[b]
65 | CC1CC(Nc2nc(Nc3cccc(N4CCN(C)C4=O)c3)ncc2Br)C1 (centres unmarked) [Example 290] | 2[b]
66 | CC1CC(Nc2nc(Nc3cccc(N4C(=O)C(C)CC4C)c3)ncc2Br)C1 (centres unmarked) [Example 291] | 2.66[b]
67 | CN1CCN(c2cccc(Nc3ncc(C(F)(F)F)c(NC4CC4)n3)c2)C1=O [Example 293] | 2.22[b]
68 | CN1CCN(c2cccc(Nc3ncc(I)c(NC4CC4)n3)c2)C1=O [Example 296] | 1.57[b]
69 | CC(CF)Nc1nc(Nc2cccc(N3CCCC3=O)c2)ncc1C(F)(F)F (centres unmarked) [Example 298] | 2.48[b]
70 | O=C1CCCN1c1cccc(Nc2ncc(C(F)(F)F)c(NC3CCCC3)n2)c1 [Example 303] | 3.04[b]
71 | CCCNc1nc(Nc2cccc(N3CCCC3=O)c2)ncc1Cl [Example 307] | 1.49[b]
72 | CC1CC(Nc2nc(Nc3cccc(N4C(=O)CCC4C)c3)ncc2Br)C1 (centres unmarked) [Example 317] | 2.17[b]
73 | CN(c1nc(Nc2cccc(N3CCCC3=O)c2)ncc1C(F)(F)F)C1CCCC1 [Example 319] | 3.56[b]
74 | O=C1CCCN1c1cccc(Nc2ncc(C(F)(F)F)c(N3CCCCC3)n2)c1 [Example 320] | 3.29[b]
75 | CC1(C)CC1Nc1nc(Nc2cccc(N3CCCC3=O)c2)ncc1C(F)(F)F (centres unmarked) [Example 321] | 3.04[b]
76 | O=C1CCCN1c1cccc(Nc2ncc(C(F)(F)F)c(NC3COC3)n2)c1 [Example 322] | 1.84[b]
77 | CNc1nc(Nc2cccc(N3CCCC3=O)c2)ncc1C(F)(F)F [Example 323] | 1.63[b]
